Results on four compounds are retold here after patent publication US9968097B2 (priority 2012, dated 2018).

Type in all cases: in vivo
The test system of one experiment is Phytophthora infestans. The conditions noted are these: tomatoes, preventive, evaluated 3 days after inoculation.
For the next experiment, the system named is Sphaerotheca fuliginea. As to the kind of experiment: Sphaerotheca test (cucumbers)/preventive. The conditions noted are these: preventive, evaluated 7 days after inoculation. An excerpt:
Sphaerotheca Test (Cucumbers)/Preventive

In another experiment the test system is Alternaria solani. Put plainly: Alternaria test (tomatoes)/preventive. Conditions: preventive, evaluated 3 days after inoculation. An excerpt:
Alternaria Test (Tomatoes)/Preventive

Another experiment deals with Venturia inaequalis. Put plainly: Venturia test (apples)/preventive. The conditions noted are these: 100 ppm a.i., preventive, evaluated 10 days after inoculation. An excerpt: Venturia Test (Apples)/Preventive
A further experiment has as its system Botrytis cinerea. Put plainly: Botrytis test (beans)/preventive. Conditions: 10 ppm a.i., preventive, lesion size 2 days after inoculation. An excerpt: Botrytis Test (Beans)/Preventive

Structures can show the parent of a compound that is named as a salt. Where two headings read alike, the source gives them in different places.

Take `CCCOC(=O)NCCCN(C)C` [F220 propamocarb-HCl, propamocarb hydrochloride]: the “Efficacy in % found” value in the experiment with Phytophthora infestans (400 ppm a.i.) amounted to 3%; in the experiment with Sphaerotheca fuliginea (400 ppm a.i.), 0%; in the experiment on Alternaria solani (Table D1, 200 ppm a.i.), 30%.

As for `COCC(=O)N(c1c(C)cccc1C)C(C)C(=O)OC` (stereo not drawn) [F241 metalaxyl, metalaxyl], in the experiment with Alternaria solani (Table D2, 100 ppm a.i.), the “Efficacy in % found” value was found to be 8%.

On to `N#Cc1c[nH]cc1-c1cccc2c1OC(F)(F)O2` [F248 fludioxonil, fludioxonil], for which the “Efficacy in % found” value came to 12% in the experiment with Phytophthora infestans (100 ppm a.i.), 0% with Venturia inaequalis, 83% with Sphaerotheca fuliginea (100 ppm a.i.) and 87% with Botrytis cinerea.

In the case of “metalaxyl-M (mefenoxam) [F242 mefenoxam]”, in the experiment on Alternaria solani (Table D2, 100 ppm a.i.), the “Efficacy in % found” value worked out at 0%.
